#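 Grown in 96-well plates, cells were treated for 48 hours with each compound at five concentrations. Insufficient inhibition: endpoint recorded as highest concentration tested. At the GI50, growth is halved.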 The source made the active and inactive calls. Rule as the data show it: active = GI50 up to about 1.1 µM and inactive = higher.
# Key:
# Assay in all cases: DTP human tumour cell line panel, 48 h
# [1] = tested on: NCI-H522
# [2] = tested on: HT-29
# [3] = tested on: EKVX
# [4] = tested on: OVCAR-3
# [5] = tested on: Malme-3M
# [6] = tested on: UACC-257
# [7] = tested on: SK-OV-3
# [8] = tested on: SF-539
# [9] = tested on: K562
# [10] = tested on: HL-60
# [11] = tested on: SN12C
# [12] = tested on: 786-0
# [13] = tested on: SNB-19
# [14] = tested on: CAKI-1
# [15] = tested on: UO-31
# [16] = tested on: OVCAR-5
# [17] = tested on: OVCAR-4
# [18] = tested on: LOX IMVI
# [19] = tested on: NCI-H226
# [20] = tested on: HCT-15
Structure (SMILES),GI50 [1],GI50 [2],GI50 [3],GI50 [4],GI50 [5],GI50 [6],GI50 [7],GI50 [8],GI50 [9],GI50 [10],GI50 [11],GI50 [12],GI50 [13],GI50 [14],GI50 [15],GI50 [16],GI50 [17],GI50 [18],GI50 [19],GI50 [20] [µM]
CN(C)/N=C(/c1nc2ccc(Cl)cc2nc1O)C(O)c1ccc(C(O)/C(=N\N(C)C)c2nc3ccc(Cl)cc3nc2O)cc1 (stereo not given),> 100 µM (inactive),> 100 µM (inactive),> 100 µM (inactive),> 100 µM (inactive),> 100 µM (inactive),> 100 µM (inactive),> 100 µM (inactive),> 100 µM (inactive),60.3 µM (inactive),27.9 µM (inactive),> 100 µM (inactive),> 100 µM (inactive),> 100 µM (inactive),> 100 µM (inactive),> 100 µM (inactive),> 100 µM (inactive),> 100 µM (inactive),,,
O=C1N(C2CCCCC2)CC12CCCCC2,> 100 µM (inactive),,> 100 µM (inactive),,> 100 µM (inactive),,> 100 µM (inactive),> 100 µM (inactive),> 100 µM (inactive),41.2 µM (inactive),> 100 µM (inactive),> 100 µM (inactive),> 100 µM (inactive),,> 100 µM (inactive),,> 100 µM (inactive),> 100 µM (inactive),> 100 µM (inactive),> 100
C(=C\c1csnn1)/c1cccnc1,> 100 µM (inactive),> 100 µM (inactive),> 100 µM (inactive),> 100 µM (inactive),> 100 µM (inactive),> 100 µM (inactive),> 100 µM (inactive),> 100 µM (inactive),> 100 µM (inactive),> 100 µM (inactive),> 100 µM (inactive),> 100 µM (inactive),> 100 µM (inactive),,> 100 µM (inactive),> 100 µM (inactive),> 100 µM (inactive),> 100 µM (inactive),> 100 µM (inactive),> 100
C=CC[N+]12CN3CN(CN(C3)C1)C2,14.3 µM (inactive),17.9 µM (inactive),20.4 µM (inactive),43.9 µM (inactive),18.7 µM (inactive),24.5 µM (inactive),> 100 µM (inactive),16.9 µM (inactive),19.2 µM (inactive),35.3 µM (inactive),23.4 µM (inactive),,40 µM (inactive),20.5 µM (inactive),21 µM (inactive),23.2 µM (inactive),26.2 µM (inactive),27 µM (inactive),,22.6
c1ccc2c(c1)nnn2CNc1ccc(N2CCOCC2)cc1,> 100 µM (inactive),> 100 µM (inactive),> 100 µM (inactive),> 100 µM (inactive),> 100 µM (inactive),> 100 µM (inactive),> 100 µM (inactive),> 100 µM (inactive),> 100 µM (inactive),33.3 µM (inactive),> 100 µM (inactive),> 100 µM (inactive),> 100 µM (inactive),,> 100 µM (inactive),,> 100 µM (inactive),> 100 µM (inactive),> 100 µM (inactive),> 100
CSC(=N)N1N=C2/C(=C/c3ccccc3)CCC[C@H]2[C@H]1c1ccccc1,4.23 µM (inactive),2.07 µM (inactive),4.56 µM (inactive),10.6 µM (inactive),1.93 µM (inactive),2.37 µM (inactive),3.68 µM (inactive),6.58 µM (inactive),1.91 µM (inactive),1.72 µM (inactive),3.92 µM (inactive),5.47 µM (inactive),6.47 µM (inactive),,3.4 µM (inactive),3.98 µM (inactive),2.58 µM (inactive),4.19 µM (inactive),2.64 µM (inactive),6.52
S=C(S)N1CCN(c2ccccc2)CC1,> 100 µM (inactive),> 100 µM (inactive),> 100 µM (inactive),> 100 µM (inactive),> 100 µM (inactive),> 100 µM (inactive),,> 100 µM (inactive),52.6 µM (inactive),9.31 µM (inactive),> 100 µM (inactive),45.1 µM (inactive),> 100 µM (inactive),> 100 µM (inactive),,> 100 µM (inactive),,32.9 µM (inactive),,> 100
O=C(O)CNS(=O)(=O)c1ccc(NC(=O)c2ccc(F)cc2)cc1,> 10 µM (inactive),> 100 µM (inactive),> 100 µM (inactive),> 100 µM (inactive),> 100 µM (inactive),> 100 µM (inactive),> 100 µM (inactive),> 100 µM (inactive),> 100 µM (inactive),> 100 µM (inactive),> 100 µM (inactive),> 100 µM (inactive),> 100 µM (inactive),> 100 µM (inactive),> 100 µM (inactive),> 100 µM (inactive),> 100 µM (inactive),> 100 µM (inactive),,> 100
Cc1nc2n(c1/C=C1/C(=O)Nc3cccc(Cl)c31)CCS2,21.5 µM (inactive),> 100 µM (inactive),31.8 µM (inactive),> 100 µM (inactive),50.2 µM (inactive),> 100 µM (inactive),16.7 µM (inactive),19 µM (inactive),20.3 µM (inactive),> 100 µM (inactive),25.1 µM (inactive),40 µM (inactive),27.2 µM (inactive),46.3 µM (inactive),29.8 µM (inactive),> 100 µM (inactive),,81.7 µM (inactive),,89.1
CCCCCCCC(=O)OCC1OC(n2cc(F)c(=O)[nH]c2=O)C(NC(=O)OCc2ccccc2)C(OC(=O)CCCCCCC)C1O (stereo not given),16.7 µM (inactive),29.8 µM (inactive),42.5 µM (inactive),20.6 µM (inactive),17.9 µM (inactive),39.7 µM (inactive),> 100 µM (inactive),26.3 µM (inactive),15.6 µM (inactive),16.5 µM (inactive),14.1 µM (inactive),23.5 µM (inactive),0.11 µM (active),19.2 µM (inactive),0.106 µM (active),,10.5 µM (inactive),15.1 µM (inactive),,26.5
BrP(NC1CCCCCC1)(c1ccccc1)(c1ccccc1)c1ccccc1,2.23 µM (inactive),2.1 µM (inactive),7.14 µM (inactive),3.38 µM (inactive),2.93 µM (inactive),1.86 µM (inactive),,14.1 µM (inactive),2.74 µM (inactive),1.9 µM (inactive),5.06 µM (inactive),7.53 µM (inactive),4.66 µM (inactive),3.98 µM (inactive),4.25 µM (inactive),18 µM (inactive),,2.36 µM (inactive),13.5 µM (inactive),18.8

# From ChEMBL document CHEMBL1201862, “PubChem BioAssay data set” (2004)
